Source: US20130131062A1, “PYRIDAZINONES AND FURAN-CONTAINING COMPOUNDS” (priority 2006, published 2013)
Like-named read-outs stand apart in the source and are kept apart here.

Key:
[1] = tested on: 15 non small cell lung cancer lines representing various EGFR and KRAS mutations; test: Dose response studies against 15 NSCLC lines (alamar blue); assay type: cell-based, human; conditions: 12 point doubling dilution 10 uM to 5 nM, alamar blue
Description: Dose response studies against 34 compounds from the pyridazinone and phenylfuran-carboxamide class were conducted. […] In addition, Tarceva was included in these dose response studies.
The dose response studies were done with the following standard procedure. First, the cells were counted and dispensed at 250 cells/well into 384-well microplates with compound. The cells were incubated for 48 hours at 37 C to complete treatment, and then alamar blue was added for an additional 48 hours. Finally, alamar blue reduction was measured and the data was loaded into ORIS, our data screening acquisition platform.

H2030 = test: Non Small Cell Lung Cancer Proliferation Assay (Alamar Blue); assay type: cell-based, human; conditions: Homo sapiens, NCI-H2030, dose response 10 μM to 5 nM
Description: (§1) These cells have a doubling time of 1-2 days. All cell types are adherent and grow in colonies. The cells should be kept at a density between 50,000 cells/mL-500,000 cells/mL to provide for optimum growth and adequate nutrition. The cell line should be maintained at 37° C. in a humidified atmosphere with 5% CO2 in a sterile cell culture incubator.
(§2) To perform the assay, the Non Small Cell Lung Cancer lines are diluted in media and plated into 384 well microplates at a final density of 250 cells in 45 μL.
(§3) High Controls for this assay are made by treating Non Small Cell Lung Cancer cells with 5 ul of 10% DMSO. [Final concentration in this assay is 1% DMSO].
(§4) Important Note: All compounds for testing in this assay should be done at the final concentration of 1% DMSO.
(§5) After addition, the cells are placed in cell culture incubator at 37° C. for 48 hours for complete treatment.
(§6) After drug treatment, cytotoxicity is measured by Alamar Blue reduction.
(§7) The cells are incubated for 48 hours at 37° C. to complete the Alamar Blue reduction.
(§8) The final step in the assay is to measure the amount of Alamar Blue reduction. […] The Alamar Blue fluorescence is measured at an excitation of 530 nm and emission of 590 nm.
(§9) For the NSCLC project, the cell based assay was screened against a small molecule library of approximately 200,000 compounds. The compound library is stored in our automated robotic freezer (Biophile) at −20° C. in 100% DMSO. Compound freeze and thaw cycles are kept to a minimum. […] This assay was performed on a fully automated linear track robotic platform (CRS F3 Robot System, Thermo Electron Corp., Ontario, Canada) utilizing several integrated peripherals for plate handling, liquid dispensing, and readout detection. […] The microplates are then placed at 37° C. for 48 hours to complete treatment of cells with compounds. Next, 5 ul of alamar blue was added using a liquid dispenser (FlexDrop Precision Dispenser, Perkin Elmer, Mass., USA) and incubated for 48 hours at 37° C. The alamar blue prompt fluorescence was measured on Victor V (Victor^3 V, Perkin Elmer, Mass., USA) and output data files were loaded into ORIS (Oncology Research Informatics System, MSKCC, NY, USA), a screening data acquisition and analysis platform.

H3255 = test: as above; assay type: cell-based, human; conditions: Homo sapiens, NCI-H3255, dose response 10 μM to 5 nM
Description: as §1, §2, §3, §4, §5, §6, §7, §8, §9

H827 = test: Non Small Cell Lung Cancer Proliferation Assay (Alamar Blue), dose response; conditions: Homo sapiens, read-out: H827 Dose Response (uM)
Description: This assay was performed on a fully automated linear track robotic platform (CRS F3 Robot System, Thermo Electron Corp., Ontario, Canada) utilizing several integrated peripherals for plate handling, liquid dispensing, and readout detection. […] The microplates are then placed at 37° C. for 48 hours to complete treatment of cells with compounds. Next, 5 ul of alamar blue was added using a liquid dispenser (FlexDrop Precision Dispenser, Perkin Elmer, Mass., USA) and incubated for 48 hours at 37° C. The alamar blue prompt fluorescence was measured on Victor V (Victor^3 V, Perkin Elmer, Mass., USA) and output data files were loaded into ORIS (Oncology Research Informatics System, MSKCC, NY, USA), a screening data acquisition and analysis platform. […]

in vitro = conditions: human
Description: NHBE (normal human bronchiolar epithelial cells) are primary cells obtained from donor lungs and commercially available from Cambrex. The HPLID (human peripheral lung epithelial) cell line has been immortalized with the SV40 large T-antigen. WI-38: human lung fibroblast cell line. HPLID, NHBE and WI-38 cells will serve as controls in the chemical screens. WT: wildtype; WT*: over-expressed wildtype.
Compounds were tested in dose response studies from 10 μM to 5 nM against several non small cell lung cancer lines: H358, H827, H1118, H1650, H1734, H1975, H2030, and H3255, and were also studied in a 72 hour cytotoxicity assay against the NHBE and WI-38 cell lines.

Work on Cc1ccccc1-n1ncc(Cl)c(Cl)c1=O [compound 257017] yielded an IC50 ([1]; HPL1D (SV40-immortalized human lung epithelian cells, EGFR WT, KRAS WT), read-out: IC50 HPL1D) of 1140 nM, an IC50 ([1]; Homo sapiens, NCI-H358, H358 (EGFR WT, KRAS G12C), read-out: IC50 H358) of 1700 nM and an IC50 ([1]; Homo sapiens, NCI-H460, H460 (EGFR WT, KRAS Q61H), read-out: IC50 H460) of 3680 nM. The IC50 ([1]; Homo sapiens, NCI-H820, H820 (EGFR T790M/DelE746-A750, KRAS WT), read-out: IC50 H820) was 470 nM, the IC50 ([1]; Homo sapiens, NCI-H1650, H1650 (EGFR DelE746-A750, KRAS WT), read-out: IC50 H1650) was 1670 nM and the IC50 ([1]; Homo sapiens, NCI-H1734, H1734 (EGFR WT, KRAS G13C), read-out: IC50 H1734) was 3200 nM. It also gave an IC50 ([1]; Homo sapiens, NCI-H1975, H1975 (KRAS WT), read-out: IC50 H1975) of 760 nM, an IC50 ([1]; Homo sapiens, NCI-H2030, H2030 (EGFR WT, KRAS G12C), read-out: IC50 H2030) of 1380 nM and an IC50 ([1]; Homo sapiens, NCI-H2122, H2122 (EGFR WT, KRAS G12C), read-out: IC50 H2122) of 2160 nM. It also gave an IC50 ([1]; Homo sapiens, NCI-H2444, H2444 (EGFR WT, KRAS G12V), read-out: IC50 H2444) of 1050 nM, an IC50 ([1]; Homo sapiens, NCI-H3255, H3255 (EGFR L858R, KRAS WT), read-out: IC50 H3255) of 3160 nM and an IC50 ([1]; Homo sapiens, A549 (EGFR WT, KRAS G12S), read-out: IC50 A549) of 2130 nM. For the same molecule, the IC50 ([1]; Homo sapiens, H23 (EGFR WT, KRAS G12C), read-out: IC50 H23) was 310 nM, the IC50 ([1]; Homo sapiens, H1118 (EGFR L858R, KRAS WT), read-out: IC50 H1118) was 830 nM and the IC50 ([1]; Homo sapiens, PC9 (EGFR DclE746-A750, KRAS WT), read-out: IC50 PC9) was 2000 nM. For the same molecule, the IC50 (H2030) was 1080 nM, the IC50 (H3255) was 2950 nM and the IC50 (H827) was 0.71 µM. For the same molecule, the IC50 at 72 h (in vitro) was 7.52 µM and the IC50 at 72 h (in vitro; NHBE CytoTox (uM)) was 5.17 µM.
